Assay results published in PubChem BioAssay AID743372 (Vanderbilt Specialized Chemistry Center, 2014).

Molecular target: D(4) dopamine receptor (Homo sapiens) (UniProt P21917)
Assay: antagonism of human DRD4 receptor – cell-based, confirmation (AID 743372)
Settings: cells expressing human D4 receptor, antagonist mode

IC50	Compound
3680 nM	Cc1ccccc1CN1CCOC(CCc2ccccc2)C1 (stereo unspecified)
3880 nM	Fc1cccc(F)c1CN1CCOC(CCc2ccccc2)C1 (stereo unspecified)
230 nM	FC(F)(F)Oc1ccc(CN2CCO[C@H](CCc3ccccc3)C2)cc1
160 nM	FC(F)(F)Oc1ccc(CN2CCOC(CCc3ccccc3)C2)cc1 (stereo unspecified)
290 nM	Clc1ccc(CN2CCOC(CCc3ccccc3)C2)cc1 (stereo unspecified)
170 nM	COc1ccc(CN2CCOC(CCc3ccccc3)C2)cc1 (stereo unspecified)
100 nM	COc1ccc(CN2CCO[C@@H](CCc3ccccc3)C2)cc1
390 nM	FC(F)(F)Oc1cccc(CN2CCOC(CCc3ccccc3)C2)c1 (stereo unspecified)
130 nM	Clc1ccc(CN2CCO[C@H](CCc3ccccc3)C2)cc1
1140 nM	Fc1ccc(CN2CCOC(CCc3ccccc3)C2)cc1 (stereo unspecified)
1480 nM	c1ccc(CCC2CN(Cc3ccccc3)CCO2)cc1 (stereo unspecified)
